Test results taken from US8232070B2, “DNP63A gene and screening methods of anticancer agent by using it” (Seoul National University Industry Foundation, priority 2007, dated 2012).
Peptide text beside a SMILES is read from it. * marks the point of attachment. Cbz = O=C(OCc1ccccc1)*

How the values were obtained:
ΔNp63α [1] = assay: ΔNp63α protein amount and stability in ME180 carcinoma cells after TNF-α treatment (cyclohexamide chase, FIG. 1); type: cell-based
Procedure: After TNF-α treatment for 16 hours, cyclohexamide which inhibit protein synthesis was added and the samples were obtained at the indicated time-points and observed for changes of protein stability. As a result, the protein degradation began after 4 hours of treatment with cyclohexamide.
Previously, ME180, ΔNp63α overexpressing carcinoma, was treated with TNF-α (tumor necrosis factor-alpha) which induces cell death. Also, the changes of the amount of ΔNp63α protein were observed. […] It is identified that such degradation of ΔNp63α was proceeded by specific mechanism, that is, by proteasome-mediated mechanism (FIG. 1). Protein degradation pathways could be usually classified in large into two groups, the first one is a degradation pathway by a protease after its polyubiquitination and movement to proteases, and the other one is a degradation pathway by a caspases.

ΔNp63α [2] = assay: Intracellular location of GFP-fused ΔNp63α in transformed ME180 cells, fluorescence microscopy (FIG. 2); type: cell-based; conditions: ME180 transformed with pEGFP-ΔNp63α
From the text: The recombinant vector constructed by the present inventor had fused ΔNp63α next to pEGFP-C1. The advantage of GFP is to observe easily in microscopy because GFP emit the green light at the specific absorbance (Excitation maximum=488 nm; emission maximum=507 nm). […] GFP is inherently expressed all over the area of cell, however, it was identified that GFP expression was observed only in the nucleus after GFP fused with ΔNp63α.
As a signal of cell death induction, the intracellular location and expression patterns of ΔNp63α were observed. In detail, it was observed variation aspect and cell location of ΔNp63α with a time span, 0 hr, 1 hr, 2 hr and 4 hr with fluorescence microscope, after cloning ΔNp63α gene into the vector expressing Green Fluorescence Protein (GFP), expressing for a certain time by transformation into carcinoma cell, treating TNF-α which induce cell death, carcinoma cells being transformed and then the protein being expressed for a certain time. As a result, it was observed similar aspect of aggreasome, which looks like complex of preteasome, because ΔNp63α, which had been known to locate only in nucleus, moved from nucleus to cytoplasm about 2 hr after treatment of TNF-α (FIG. 2). […]

Compound	ΔNp63α protein degradation with proteasome inhibitor co-treatment (ΔNp63α [1]; MG132 20 nM together with cyclohexamide after TNF-α treatment for 16 hours)	change of ΔNp63α protein location after treatment (ΔNp63α [2])	time at which ΔNp63α moved from nucleus to cytoplasm after treatment (ΔNp63α [2]; observed at 0 hr, 1 hr, 2 hr and 4 hr)	amount of ΔNp63α protein after treatment (ΔNp63α [1]; ME180 cells, ΔNp63α overexpressing carcinoma)	time at which ΔNp63α protein degradation began after addition of cyclohexamide (ΔNp63α [1]; TNF-α treatment for 16 hours, then cyclohexamide added) [h]
CC(C)C[C@@H](C=O)NC(=O)[C@H](CC(C)C)NC(=O)[C@H](CC(C)C)NC(=O)OCc1ccccc1 [MG132, reference compound] (Cbz-Leu-Leu-Leu-aldehyde)	wasn't degraded and stabilized even after 4 hours				
TNF-α		from the nucleus to the cytoplasm	about 2 hr	decreased rapidly	4
